The numbers were not newly measured in patent US10376519B2, “Tricyclic lactams for use in HSPC-sparing treatments for Rb-positive abnormal cellular proliferation” (G1 Therapeutics, Inc., priority 2014, dated 2019), which cites them from elsewhere.

For series [1] the following is noted: Grade 3/4 neutropenia and leukopenia, clinical trial studies.
The conditions of series [2]: in vivo.

Each structure is given as a SMILES string.

Turning to `CC(=O)c1c(C)c2cnc(Nc3ccc(N4CCNCC4)cn3)nc2n(C2CCCC2)c1=O` [palbociclib, 6-acetyl-8-cyclopentyl-5-methyl-2-(5-piperazin-1-yl-pyridin-2-ylammino)-8H-pyrido-[2,3-d]-pyrimidin-7-one], in series [1], the “patients requiring a dose interruption” value was 71% and the “patients requiring a dose reduction” value is on record as 35%. In series [2], the T1/2 entry was “roughly 26.7 hours”.
